Values quoted from earlier work in EP2703009A1, “Combination treatments involving antibodies to human PCSK9” (SANOFI, priority 2012, dated 2014).

Key:
[1] = in vivo; cited from earlier work
[2] = test system: patients with genotype-confirmed hoFH; details: ezetimibe 10 mg/day added to the maximal dose of statins; cited from earlier work
PCSK9 = details: stated as known for statins and ezetimibe; limited or no information on ezetimibe alone; cited from earlier work
[3] = after oral administration; cited from earlier work

CC(C)OC(=O)C(C)(C)Oc1ccc(C(=O)c2ccc(Cl)cc2)cc1 [fenofibrate]
Frequent adverse events reported [1]: abdominal pain, nausea, vomiting, diarrhea, flatulence, increase ALT/AST
Less frequently reported adverse events [1]: pancreatitis, thromboembolism (pulmonary embolism, deep venous thrombosis), biliary lithiasis, rash, pruritus, urticaria, photosensitivity reaction, increase creatinine and increase urea

O=C1[C@H](CC[C@H](O)c2ccc(F)cc2)[C@@H](c2ccc(O)cc2)N1c1ccc(F)cc1 [ezetimibe]
Frequent adverse events reported [1]: abdominal pain, diarrhea, flatulence, fatigue, increase ALT/AST, headache and myalgia
total reduction of LDL-C levels [2]: 27%
PCSK9 expression (PCSK9): upregulated

O=C(O)[C@H]1O[C@@H](Oc2ccc([C@@H]3[C@@H](CC[C@H](O)c4ccc(F)cc4)C(=O)N3c3ccc(F)cc3)cc2)[C@H](O)[C@@H](O)[C@@H]1O [ezetimibe-glucuronide]
half-life (elimination from plasma) [3]: approximately 22 hours

CC(C)(Oc1ccc(C(=O)c2ccc(Cl)cc2)cc1)C(=O)O [Fenofibric acid]
half-life (elimination from plasma) [3]: 20 h
